Earlier results, collected in patent publication US20170216217A1, “SPHERICAL MICROCAPSULES WITH ENHANCED ORAL BIOAVAILABILITY” (I2O Pharma Ltd., priority 2016, published 2017).

CN1CCN(C2=Nc3cc(Cl)ccc3Nc3ccccc32)CC1 [Clozapine]
Oral bioavailability: 27%
